One assay addresses T1, CCR-3 (Homo sapiens, UniProt P51677).
T1 sequence (P51677 1-355): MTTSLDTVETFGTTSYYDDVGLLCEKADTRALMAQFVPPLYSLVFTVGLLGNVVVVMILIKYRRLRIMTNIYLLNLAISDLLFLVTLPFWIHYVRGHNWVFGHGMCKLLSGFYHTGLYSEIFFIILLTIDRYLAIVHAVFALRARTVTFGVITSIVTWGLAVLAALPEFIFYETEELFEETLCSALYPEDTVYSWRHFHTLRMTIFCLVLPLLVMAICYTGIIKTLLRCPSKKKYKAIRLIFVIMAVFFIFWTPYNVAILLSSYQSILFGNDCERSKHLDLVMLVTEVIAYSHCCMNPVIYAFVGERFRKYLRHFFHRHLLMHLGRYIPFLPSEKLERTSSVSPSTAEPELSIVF
In words: Eotaxin-induced chemotaxis of CCR-3 transfectant cells (CCR3/U937). The format is cell-based. Further details: expressed in transfected cells; host or cells: U937. The following applies: U-937; 10 µM test compound; eotaxin 1 x 10^-9 M; CCR3/U937 cells (Table 3c).

The subject of assay [1] is bronchoconstriction provoked by acetylcholine. In words: Airway hyperreactivity: bronchoconstriction provoked by acetylcholine (murine asthma model, OVA-immunized mice). It counts as in vivo, Male BALB/c mice. The following applies: administered intraperitoneally for 9 days, starting on the first day of antigen inhalation; Figure 2A. Here is the method:
(§1) Male BALB/c mice were immunized by an intraperitoneal injection of 10 µg OVA adsorbed to 1 mg aluminum hydroxide gel (alum). A booster injection of the same dose of alum-adsorbed OVA was given 5 days later. Unitnmunized control mice received saline.
(§2) Twelve days after primary immunization, both the immunized and unimmunized mice were exposed to aerosolized antigen. Aerosolization of OVA was performed using a nose-only aerosol chamber adapted for mice. Animals were exposed for 10 minutes to 5 mg/ml OVA aerosolized by an ultrasonic nebulizer (NE-U12, Omron, Tokyo, Japan) driven by a vacuum pump. The antigen bronchoprovocation was repeated on day 16 and day 20 under the same conditions. Compound No. 298 (CPD No. 298) was dissolved in saline containing 2 % DMSO and 2 % Cremophore and administered intraperitoneally for 9 days, starting on the first day of antigen inhalation.
Twenty-four hours after the final aerosol exposure, bronchoconstriction was measured by the overflow method of Konzett and Rössler. […] Bronchoconstriction was recorded on a flatbed recorder (Model FBR-252A, TOA Electronics Ltd., Tokyo, Japan). […]

For assay [2], the system named is eosinophil infiltration to bronchoalveolar lavage fluid (BALF). In words: Eosinophil infiltration in bronchoalveolar lavage fluid (BALF), murine asthma model. The format is in vivo, Male BALB/c mice. The conditions noted are these: administered intraperitoneally for 9 days; two hundred cells counted per slide; Figure 2C. Here is the method: as §1, §2
Immediately after the measurement of airway reactivity to acethycholine, BALF was collected by lavaging whole-lung three times with 0.7-ml aliquots of physiological saline containing 0.1 % BSA via the tracheal cannula while gently massaging the thorax. The BALF recovered from one mouse was pooled, centrifuged, and the cells were resuspended in 100 µl saline containing 0.1 % BSA. Cell numbers were determined using a hemocytometer and 2 x 10^4 cells were cytecetrifuged onto a glass slide. […]

Assay [3] deals with collagen-induced arthritis. The experiment in a line: Type II collagen-induced arthritis in mice, clinical score. The conditions noted are these: 20 mg/kg per day subcutaneously starting at 2nd immunization; versus control vehicle; Figure 1A/1B. It counts as in vivo, Male DBA/1 mice.

Usually inhibition stands for the drop in the measured response relative to a control, in per cent. Low values mean a weak effect, high ones a strong effect. In turn, `CC[N+](CCCNC(=O)Nc1ccccc1)(CCc1ccc(Cl)cc1)Cc1ccc(Cl)cc1.[I-]` (stereo not shown) [Compound 298, [3-(Phenylureido)propyl][2-(4-chlorophenyl)ethyl](4-chlorobenzyl)ethylammonium iodide] came in with an inhibition at 10 µM against CCR-3 of 100%. Also, the “bronchoconstriction provoked by acetylcholine” value in assay [1] is recorded as “Inhibition of bronchoconstriction”. For the same compound, the “eosinophil infiltration to bronchoalveolar lavage fluid (BALF)” value in assay [2] is reported as “significantly suppressed eosinophil infiltration”. In addition, the “clinical score, collagen-induced arthritis” value in assay [3] is “marked prevention in clinical score”.

For the origin of these results see EP1200395B1, “UREA DERIVATIVES AS INHIBITORS OF CCR-3 RECEPTOR” (KIRIN BEER KABUSHIKI KAISHA, priority 1999, dated 2001).
